Results taken from patent publication EP1561465A2, “Methods of use of fluoroquinolone compounds against bacteria” (LG Life Sciences, Ltd., priority 1999, dated 2001).
≈ marks a conversion by molar mass, not a printed value. Like-named read-outs stand apart in the source and are kept apart here.

Assays:
Format in all cases: cell-based
[1] = tested on: Mycobacterium tuberculosis (MTB); assay: MIC by proportions method (NCCLS M24-T, 1995), 82 MTB strains; conditions: compared with the other quinolones
Salmonella spp. = assay: MIC by agar dilution (NCCLS M7-A4), 288 enteropathogenic isolates, eight quinolones; conditions: for MIC: ciprofloxacin MIC ≥[…], read-out: MIC
Hafnia alvei = assay: as above; conditions: Hafnia alvei (n = 32)
Streptococcus pyogenes = assay: MIC by agar dilution (NCCLS), 411 isolates Buenos Aires 1998-99
Klebsiella pneumoniae [2] = assay: MIC by NCCLS reference broth microdilution, 450 respiratory tract pathogens; conditions: for MIC50 / MIC90: Klebsiella pneumoniae
Haemophilus influenzae [3] = assay: MIC by broth microdilution (NCCLS), dried MicroScan panels, clinical isolates 1998-1999; conditions: for MIC90: Haemophilus influenzae
Haemophilus influenzae [4] = assay: MIC by two-fold serial agar dilution, Sensitivity Disk agar-N (Kitasato isolates); conditions: Haemophilus influenzae (24)
Staphylococcus aureus = assay: microbe, parasite or virus in culture; conditions: for MIC90: read-out: MIC90
E. coli = assay: microbe, parasite or virus in culture; conditions: Escherichia coli
Enterococcus faecalis = assay: MIC by NCCLS broth microdilution, 1100 Japanese clinical isolates 1997-1998; conditions: for MIC50 / MIC90: Enterococcus faecalis; for MIC90: read-out: MIC90
Enterococcus gallinarum = assay: as above; conditions: Enterococcus gallinarum, GALLINARUM
Klebsiella oxytoca = assay: as above; conditions: Klebsiella oxytoca (n=40)
Enterobacter cloacae = assay: as above; conditions: Enterobacter cloacae (n=40)
Morganella morganii = assay: as above; conditions: Morganella morganii (n=40)
Klebsiella pneumoniae [5] = assay: MIC by agar dilution (NCCLS), 322 nosocomial Gram negative isolates, Athens 1998; conditions: n = 56 isolates
Proteus mirabilis = assay: as above; conditions: Proteus mirabilis; n = 57 isolates
Enterobacter spp. = assay: as above; conditions: n = 57 isolates
Enterococcus faecium = assay: MIC by agar macrodilution (NCCLS), 373 Gram positive isolates, Athens 1998
Yersinia enterocolitica = assay: MIC by agar dilution (NCCLS M7-A4), 288 enteropathogenic isolates, gemifloxacin and 15 other antimicrobials; conditions: Yersinia enterocolitica N= 22
Shigella spp. = assay: as above; conditions: Shigella spp. N= 21
Outline: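 Agar dilution with ~10^4 cfu/spot inoculum; plates incubated aerobically at 35 °C for 24 h, except C. jejuni, held microaerophilically for 48 h. MIC taken as lowest antibiotic concentration with no visible growth.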

[6] = extended spectrum β-lactamase negative (n = 30)
[7] = extended spectrum β-lactamase positive (n = 20)
[8] = Haemophilus influenzae (300 isolates)
[9] = Staphylococcus aureus, Methicillin-susceptible (9)
[10] = Enterococcus faecalis ciprofloxacin resistant (n=15)
[11] = Enterococcus faecalis ciprofloxacin susceptible (n=24)
[12] = 24 h, read-out: MIC (mg/L) Range

With `N[C@@H]1[C@H]2CN(c3nc4c(cc3F)c(=O)c(C(=O)O)cn4-c3ccc(F)cc3F)C[C@@H]12` [Trovafloxacin, trovafloxacin] the “in vitro activity against MTB” value [1] was “lower in vitro activity”, the MIC (Salmonella spp.; S. hadar (n = 2)) was 0.5 µg/mL (≈ 1.2 µM) and the MIC (Salmonella spp.; S. newport (n = 1)) was 0.5 µg/mL (≈ 1.2 µM). For the same compound, the MIC (Salmonella spp.; S. virchow (n = 2)) was 0.25 µg/mL (≈ 0.6 µM), the “% Susceptible” value (Salmonella spp.; Salmonella spp. (n = 106)) was 100% and the MIC50 (Salmonella spp.; Salmonella spp. (n = 106)) was 0.06 µg/mL (≈ 0.144 µM). For the same compound, the MIC90 (Salmonella spp.; Salmonella spp. (n = 106)) was 0.25 µg/mL (≈ 0.6 µM), the “MIC Range” value (Salmonella spp.; Salmonella spp. (n = 106)) was ≤0.015 to 1 µg/mL and the MIC (Salmonella spp.; Salmonella, S. tshiongwe (n = 1)) was 1 µg/mL (≈ 2.4 µM). The “% Susceptible” value (Hafnia alvei) was 100%, the MIC50 (Hafnia alvei) was 0.06 µg/mL (≈ 0.144 µM) and the MIC90 (Hafnia alvei) was 0.06 µg/mL (≈ 0.144 µM). For the same compound, the “MIC Range” value (Hafnia alvei) was 0.03 to 0.12 µg/mL, the MIC90 (Streptococcus pyogenes; Streptococcus pyogenes) was 0.125 µg/mL (≈ 0.3 µM) and the “MIC Range” value (Streptococcus pyogenes; Streptococcus pyogenes (n = 69)) was 0.06 to 1 µg/mL. For the same compound, the “MIC Range” value (Klebsiella pneumoniae [2]; Klebsiella pneumoniae (n = 50)) was ≤7.5 to 500 ng/mL, the MIC50 (Klebsiella pneumoniae [2]; Klebsiella pneumoniae (n = 50)) was 0.06 µg/mL (≈ 0.144 µM) and the MIC90 (Klebsiella pneumoniae [2]; Klebsiella pneumoniae (n = 50)) was 0.5 µg/mL (≈ 1.2 µM). The MIC50 (Klebsiella pneumoniae [2]; [6]) was 0.06 µg/mL (≈ 0.144 µM), the MIC90 (Klebsiella pneumoniae [2]; [6]) was 0.12 µg/mL (≈ 0.288 µM) and the MIC50 (Klebsiella pneumoniae [2]; [7]) was 0.5 µg/mL (≈ 1.2 µM). The MIC90 (Klebsiella pneumoniae [2]; [7]) was 0.5 µg/mL (≈ 1.2 µM), the “MIC Range” value (Klebsiella pneumoniae [2]; [6]) was ≤7.5 to 15 ng/mL and the “MIC Range” value (Klebsiella pneumoniae [2]; [7]) was 60 to 500 ng/mL. The MIC50 (Haemophilus influenzae [3]; [8]) was ≤ 0.015 µg/mL, the “MIC Range” value (Haemophilus influenzae [3]; [8]) was ≤0.015 to 0.25 µg/mL and the MIC90 (Haemophilus influenzae [3]; [8]) was ≤ 0.015 µg/mL. For the same compound, the MIC90 (Haemophilus influenzae [3]; β-lactamase negative (234)) was ≤ 0.015 µg/mL, the MIC90 (Haemophilus influenzae [3]; β-lactamase positive (66)) was 0.03 µg/mL (≈ 0.0721 µM) and the MIC50 (Haemophilus influenzae [4]) was 0.016 µg/mL (≈ 0.0384 µM). The MIC90 (Haemophilus influenzae [4]) was 0.031 µg/mL (≈ 0.0745 µM), the “MIC Range” value (Haemophilus influenzae [4]) was ≤4 to 31 ng/mL and the “MIC Range” value (Staphylococcus aureus; Methicillin-resistant (38)) was 0.031 to 16 µg/mL. For the same compound, the “MIC Range” value (Staphylococcus aureus; Methicillin-susceptible (9)) was 0.031 to 0.5 µg/mL, the MIC90 (Staphylococcus aureus; Staphylococcus aureus, Methicillin-resistant (38)) was 16 µg/mL (≈ 38.4 µM) and the MIC50 (Staphylococcus aureus; [9]) was 0.031 µg/mL (≈ 0.0745 µM). For the same compound, the MIC90 (Staphylococcus aureus; [9]) was 0.5 µg/mL (≈ 1.2 µM), the MIC (Staphylococcus aureus; Staphylococcus aureus, S. aureus KU2240, mutant type Wild (wild strain)) was 0.063 µg/mL (≈ 0.151 µM) and the MIC (Staphylococcus aureus; Staphylococcus aureus, S. aureus KU2241, mutant type NorA (efflux-mediated quinolone resistant)) was 0.063 µg/mL (≈ 0.151 µM). It also gave an MIC (Staphylococcus aureus; Staphylococcus aureus, S. aureus KU2242, mutant type T (DNA topoisomerase IV)) of 0.25 µg/mL (≈ 0.6 µM), an MIC (Staphylococcus aureus; Staphylococcus aureus, S. aureus KU2243, mutant type G+T (DNA gyrase and topoisomerase IV)) of 32 µg/mL (≈ 76.9 µM) and an MIC (Staphylococcus aureus; Staphylococcus aureus, S. aureus KU2244, mutant type G (DNA gyrase)) of 0.063 µg/mL (≈ 0.151 µM). It also gave an MIC (Staphylococcus aureus; Staphylococcus aureus, S. aureus KU2246, mutant type T (DNA topoisomerase IV)) of 0.25 µg/mL (≈ 0.6 µM), an MIC50 (E. coli; E. coli (13 strains), quinolone-resistant, read-out: MIC50) of 0.063 µg/mL (≈ 0.151 µM) and an MIC90 (E. coli; E. coli (13 strains), quinolone-resistant, read-out: MIC90) of 0.5 µg/mL (≈ 1.2 µM). For the same compound, the MIC (E. coli; E. coli KU1029, mutant type SP (spontaneous mutant in the DNA gyrase)) was 0.063 µg/mL (≈ 0.151 µM), the MIC (E. coli; E. coli KU1030, mutant type SP) was 0.063 µg/mL (≈ 0.151 µM) and the MIC (E. coli; E. coli KU1031, mutant type SP) was 0.063 µg/mL (≈ 0.151 µM). It also gave an MIC (E. coli; E. coli KU1032, mutant type SP) of 0.25 µg/mL (≈ 0.6 µM), an MIC (E. coli; E. coli KU1033, mutant type SP) of 0.031 µg/mL (≈ 0.0745 µM) and an MIC (E. coli; E. coli KU1034, mutant type GA (DNA gyrase A)) of 0.5 µg/mL (≈ 1.2 µM). The MIC (E. coli; E. coli KU1035, mutant type GA (DNA gyrase A)) was 0.5 µg/mL (≈ 1.2 µM), the MIC (E. coli; E. coli KU1036, mutant type GB (DNA gyrase B)) was 0.063 µg/mL (≈ 0.151 µM) and the MIC (E. coli; E. coli KU1038, mutant type SP) was 0.063 µg/mL (≈ 0.151 µM). The MIC (E. coli; E. coli KU1039, mutant type SP) was 0.25 µg/mL (≈ 0.6 µM), the MIC (E. coli; E. coli KU1040, mutant type SP) was ≤ 0.008 µg/mL and the MIC (E. coli; E. coli KU1041, mutant type SP) was 0.5 µg/mL (≈ 1.2 µM). The MIC (E. coli; E. coli KU1042, mutant type SP) was 0.125 µg/mL (≈ 0.3 µM), the “MIC Range” value (Enterococcus faecalis; [10]) was 0.25 to 16 µg/mL and the “MIC Range” value (Enterococcus faecalis; [11]) was 0.25 to 0.5 µg/mL. For the same compound, the MIC50 (Enterococcus faecalis; [10]) was 4 µg/mL (≈ 9.61 µM), the MIC90 (Enterococcus faecalis; [10]) was 16 µg/mL (≈ 38.4 µM) and the MIC50 (Enterococcus faecalis; [11]) was 0.25 µg/mL (≈ 0.6 µM). It also gave an MIC90 (Enterococcus faecalis; [11]) of 0.25 µg/mL (≈ 0.6 µM), an MIC (Enterococcus gallinarum) of 0.125 µg/mL (≈ 0.3 µM) and an MIC (Enterococcus gallinarum; Enterococcus gallinarum (vanC1), strain TMS2, read-out: MIC) of 0.25 µg/mL (≈ 0.6 µM). The MIC (Enterococcus gallinarum; Enterococcus gallinarum (vanC1), strain TMS3, read-out: MIC) was 0.25 µg/mL (≈ 0.6 µM), the MIC (Enterococcus gallinarum; Enterococcus gallinarum (vanC1), strain TMS4, read-out: MIC) was 0.063 µg/mL (≈ 0.151 µM) and the MIC50 (Klebsiella oxytoca) was 0.032 µg/mL (≈ 0.0769 µM). The MIC90 (Klebsiella oxytoca) was 8 µg/mL (≈ 19.2 µM), the “MIC Range” value (Klebsiella oxytoca) was ≤8 to 32000 ng/mL and the MIC50 (Enterobacter cloacae) was 0.032 µg/mL (≈ 0.0769 µM). The MIC90 (Enterobacter cloacae) was 1 µg/mL (≈ 2.4 µM), the “MIC Range” value (Enterobacter cloacae) was ≤8 to 2000 ng/mL and the “MIC Range” value (Morganella morganii) was 0.063 to 32 µg/mL. For the same compound, the MIC50 (Morganella morganii; read-out: MIC50) was 0.25 µg/mL (≈ 0.6 µM), the MIC90 (Morganella morganii; read-out: MIC90) was 1 µg/mL (≈ 2.4 µM) and the MIC50 (Klebsiella pneumoniae [5]; Klebsiella pneumoniae) was 0.125 µg/mL (≈ 0.3 µM). The MIC90 (Klebsiella pneumoniae [5]; Klebsiella pneumoniae) was 1 µg/mL (≈ 2.4 µM), the “MIC Range” value (Klebsiella pneumoniae [5]) was ≤0.03 to 16 µg/mL and the MIC50 (Proteus mirabilis) was 0.25 µg/mL (≈ 0.6 µM). The MIC90 (Proteus mirabilis) was 16 µg/mL (≈ 38.4 µM), the MIC50 (Enterobacter spp.; Enterobacter, read-out: MIC50) was 0.125 µg/mL (≈ 0.3 µM) and the MIC90 (Enterobacter spp.; Enterobacter, read-out: MIC90) was 16 µg/mL (≈ 38.4 µM). The “MIC Range” value (Enterobacter spp.) was ≤0.03 to 64 µg/mL, the “MIC distribution (µg/ml) 0.03” value (Enterococcus faecium) was 0 and the “MIC distribution (µg/ml) 0.06” value (Enterococcus faecium) was 0. The “MIC distribution (µg/ml) 0.125” value (Enterococcus faecium) was 0, the “MIC distribution (µg/ml) 0.25” value (Enterococcus faecium) was 1 and the “MIC distribution (µg/ml) 0.5” value (Enterococcus faecium) was 6. For the same compound, the “MIC distribution (µg/ml) 1” value (Enterococcus faecium) was 2, the “MIC distribution (µg/ml) 2” value (Enterococcus faecium) was 0 and the “MIC distribution (µg/ml) 4” value (Enterococcus faecium) was 0. For the same compound, the “MIC distribution (µg/ml) 8” value (Enterococcus faecium) was 1, the “MIC distribution (µg/ml) 16” value (Enterococcus faecium) was 0 and the “MIC distribution (µg/ml) ≤0.015” value (Enterococcus faecium) was 0. For the same compound, the “MIC distribution (µg/ml) ≥32” value (Enterococcus faecium) was 4, the MIC50 (Enterococcus faecium; Enterococcus faecium, n = 14 isolates, read-out: MIC50) was 0.5 µg/mL (≈ 1.2 µM) and the MIC90 (Enterococcus faecium; Enterococcus faecium, n = 14 isolates, read-out: MIC90) was ≥ 32 µg/mL. The MIC (Yersinia enterocolitica; [12]) was 0.015 to 0.25 mg/L (≈ 0.036 to 0.6 µM), the MIC (Yersinia enterocolitica; read-out: MIC (mg/L) 50%) was 0.06 mg/L (≈ 0.144 µM) and the MIC (Yersinia enterocolitica; read-out: MIC (mg/L) 90%) was 0.06 mg/L (≈ 0.144 µM). The MIC (Shigella spp.; [12]) was ≤ 0.015 mg/L, the MIC (Shigella spp.; read-out: MIC (mg/L) 50%) was ≤ 0.015 mg/L and the MIC (Shigella spp.; read-out: MIC (mg/L) 90%) was ≤ 0.015 mg/L.
